Experimental data as given in US20240317683A1, “METHODS OF TREATING MOOD DISORDERS” (priority 2020, published 2024).
Where a name gives a salt, the structure may show the parent alone.

How the values were obtained:
[1] = Metabolic stability in mouse liver microsomes (MLM); format: in vitro ADME, CD-1 mice; conditions: CD-1, mouse, pooled mouse liver microsomes, pH 7.4, NADPH
Experimental: MLM Stability. Pooled MLM from CD-1 mice (BIOIVT M00501) were used. Microsomal incubations were carried out in multi-well plates. […] Control incubations were performed by replacing the NADPH-cofactor system with PBS. Test compounds (1 μM, final solvent concentration 1.0%) were incubated with microsomes at 37° C. with constant shaking. Six time points over 60 minutes were analyzed, with 60 μL aliquots of the reaction mixture being drawn at each time point.

[2] = Pharmacokinetics in mice, plasma; format: in vivo, C57BL/6 mice; conditions: for AUC(0-t) / clearance / half-life / Cmax / Tmax: male, C57BL/6, mouse plasma; for F: mouse, based on plasma AUC0-last
Experimental: (§1) Animals. Male C57BL/6 mice, aged 8-12 weeks, were used in these studies. Four mice were housed in each cage. Temperature and humidity were maintained at 22±3° C. and 30-70%, respectively, and illumination was controlled to give a 12 h light and 12 h dark cycle. Temperature and humidity were recorded by an auto-controlled data logger system. All animals were provided laboratory rodent diet. Reverse osmosis water treated with ultraviolet light was provided ad libitum. Animals were randomly assigned to treatment groups.
(§2) Drugs. Compounds 4 and 5 were prepared as described above. All other compounds were commercially obtained. Test compounds were used as the hydrogen fumarate (1 and 2) or hydrochloride (3, 4, and 5) salts and were dissolved in a vehicle consisting of normal saline. They were then administered intravenously (IV) via the tail vein, subcutaneously (SC), or orally (PO) via gavage at a dose of 1 or 10 mg/kg (calculated based on the free base) and at a volume of 5 ml/kg body weight.
(§3) Sample Collection and Bioanalysis. Blood samples (approximately 60 μL) were collected under light isoflurane anesthesia (Surgivet®) from the retro orbital plexus at 0.08, 0.25, 0.5, 1, 2, 4, 8, and 24 h (4 animals per time point). Immediately after blood collection, plasma was harvested by centrifugation at 4,000 rpm for 10 min at 4° C. and samples were stored at −70±10° C. until bioanalysis. Following blood collection, animals were immediately sacrificed, the abdominal vena-cava was cut open, and the whole body was perfused from the heart using 10 mL of normal saline, and brain samples were collected from all animals. After isolation, brain samples were rinsed three times in ice-cold normal saline (for 5-10 seconds/rinse using ˜5-10 mL normal saline in disposable petri dish for each rinse) and dried on blotting paper. Brain samples were homogenized using ice-cold phosphate-buffered saline (pH 7.4). Total homogenate volume was three times the tissue weight. All homogenates were stored at −70±10° C. until bioanalysis. For bioanalysis, 25 μL aliquots of plasma/brain study samples or spiked plasma/brain calibration standards were added to individual pre-labeled micro-centrifuge tubes followed by 100 μL of an internal standard solution (glipizide, 500 ng/ml in acetonitrile) except for blanks, where 100 μL of acetonitrile was added. Samples were vortexed for 5 minutes and then centrifuged for 10 minutes at 4,000 rpm at 4° C. Following centrifugation, 100 μL of each clear supernatant was transferred to a 96 well plate and analyzed with a fit-for-purpose LC-MS/MS method, with authentic samples of each analyte used for calibration and identification.
(§4) Data Analysis. Pharmacokinetic parameters were estimated using the non-compartmental analysis tool of Phoenix® WinNonlin software (Ver 8.0).

[3] = Pharmacokinetics in mice, brain; format: in vivo, C57BL/6 mice; conditions: for half-life / Cmax / Tmax: male, C57BL/6; for half-life / Cmax / Tmax / AUC0-last: mouse brain; for F: mouse, based on brain AUC0-last
Experimental: as §1, §2, §3, §4

[4] = test system: monoamine oxidase A and B (MAO-A and MAO-B); assay: Stability in the presence of monoamine oxidases (human liver mitochondria); format: in vitro ADME; conditions: for MAO stability (in words): human liver mitochondria preparation; for half-life at 1 μM / microsomal CLint at 1 μM: human liver mitochondria, pH 7.4; for half-life at 1 μM / microsomal CLint at 1 μM / Remaining (t = 60 min): human mitochondrial preparation, 1 μM
Experimental: Liver Mitochondria Incubations. Human liver mitochondria (Xenotech H0610.M) were used. Mitochondrial incubations were carried out in multi-well plates. […] Six time points over 60 minutes were analyzed.

[5] = Stability in mouse brain homogenate; format: in vitro ADME, CD-1 mice; conditions: for half-life at 1 μM: male, CD-1; for half-life at 1 μM / % Compound Remaining (after 120 min): mouse brain homogenate, 37° C., 1 μM
Experimental: Mouse Brain Homogenate Stability. Frozen mouse brain homogenate (pooled from male CD-1 mice, BioreclamationIVT, MSE00BRAINMZA) was thawed in a water bath at 37° C. immediately prior to use. Positive controls and test compounds (final concentration in incubation medium=1 μM for test compounds and 2 μM for controls, all with 2% DMSO) were incubated in duplicate for each time point (0, 10, 30, 60, and 120 min) in the mouse brain homogenate at a total reaction volume of […] at 37° C. At the end of each incubation period, reactions were immediately quenched with 400 μL of acetonitrile containing internal standard (200 ng/mL tolbutamine and 200 ng/ml labetalol) and mixed thoroughly. Plates were then sealed, shaken for 20 min, and centrifuged at 4,000 rpm and 4° C. for 20 min. Aliquots of 50 μL of each supernatant were diluted into 100 μL of water and the mixtures were then shaken again for 10 min.

[6] = Stability in rat brain homogenate; format: in vitro ADME, Sprague Dawley rats; conditions: for half-life at 1 μM: male, Sprague Dawley; for half-life at 1 μM / % Compound Remaining (after 120 min): rat brain homogenate, 37° C., 1 μM
Experimental: Rat Brain Homogenate Stability. Frozen rat brain homogenate (pooled from male Sprague Dawley rats, BioreclamationIVT, RATOOBRAINMZA) was thawed in a water bath at 37° C. immediately prior to use. Positive controls and test compounds (final concentration in incubation medium=1 μM for test compounds and 2 μM for controls, all with 2% DMSO) were incubated in duplicate for each time point (0, 10, 30, 60, and 120 min) in the rat brain homogenate at a total reaction volume of 100 μL at 37° C. At the end of each incubation period, reactions were immediately quenched with 400 μL of acetonitrile containing internal standard (200 ng/ml tolbutamine and 200 ng/ml labetalol) and mixed thoroughly. Plates were then sealed, shaken for 20 min, and centrifuged at 4,000 rpm and 4° C. for 20 min. Aliquots of 50 μL of each supernatant were diluted into 100 uL of water and the mixtures were then shaken again for 10 min.

[7] = IV, 10 mg/kg, read-out: Cmax (C0 back-extrapolated to t = 0)

CCCN(CC)CCc1c[nH]c2ccccc12 [Compound 1, ethylpropyltryptamine]
half-life at 1 μM [1]: 6 min
microsomal CLint at 1 μM [1]: 231 µL/min/mg
AUC(0-t) ([2]; IV, 10 mg/kg): 844 ng·h/mL
clearance ([2]; IV, 10 mg/kg): 197 mL/min/kg
half-life ([2]; IV, 10 mg/kg): 114 min
Cmax [2, 7]: 3820 ng/mL
AUC(0-t) ([2]; oral, 10 mg/kg): 22.1 ng·h/mL
Tmax ([2]; oral, 10 mg/kg): 4.8 min
half-life ([2]; oral, 10 mg/kg): 113 min
Cmax ([2]; oral, 10 mg/kg, read-out: Cmax): 20.3 ng/mL
F ([2]; oral, 10 mg/kg): 2.6%
half-life ([3]; IV, 10 mg/kg): 104 min
Cmax [3, 7]: 15400 ng/g
Tmax ([3]; oral, 10 mg/kg): 15 min
half-life ([3]; oral, 10 mg/kg): 39.6 min
Cmax ([3]; oral, 10 mg/kg, read-out: Cmax): 101 ng/g
AUC0-last ([3]; IV, 10 mg/kg): 4,754.52 h*ng/g
AUC0-last ([3]; oral, 10 mg/kg): 68.93 ng·h/g
F ([3]; oral, 10 mg/kg): 1.4%
MAO stability (in words) [4]: highly stable
half-life at 1 μM [4]: > 145 min
microsomal CLint at 1 μM [4]: < 15.9 µL/min/mg
Remaining (t = 60 min) [4]: 95.1%
stability in mouse brain homogenate (in words) [5]: high stability
half-life at 1 μM [5]: > 289 min
% Compound Remaining (after 120 min) [5]: 113.8%
stability in rat brain homogenate (in words) [6]: high stability
half-life at 1 μM [6]: > 289 min
% Compound Remaining (after 120 min) [6]: 86.9%

CCN(C)CCc1c[nH]c2ccccc12 [Compound 2, methylethyltryptamine]
half-life at 1 μM [1]: 102 min
microsomal CLint at 1 μM [1]: 13.6 µL/min/mg
AUC(0-t) ([2]; IV, 10 mg/kg): 545 ng·h/mL
clearance ([2]; IV, 10 mg/kg): 304 mL/min/kg
half-life ([2]; IV, 10 mg/kg): 88.8 min
Cmax [2, 7]: 963 ng/mL
AUC(0-t) ([2]; oral, 10 mg/kg): 238 ng·h/mL
Tmax ([2]; oral, 10 mg/kg): 15 min
half-life ([2]; oral, 10 mg/kg): 82.2 min
Cmax ([2]; oral, 10 mg/kg, read-out: Cmax): 102 ng/mL
F ([2]; oral, 10 mg/kg): 44%
half-life ([3]; IV, 10 mg/kg): 92.4 min
Cmax [3, 7]: 6250 ng/g
Tmax ([3]; oral, 10 mg/kg): 30 min
half-life ([3]; oral, 10 mg/kg): 451 min
Cmax ([3]; oral, 10 mg/kg, read-out: Cmax): 957 ng/g
AUC0-last ([3]; IV, 10 mg/kg): 3,923.27 h*ng/g
AUC0-last ([3]; oral, 10 mg/kg): 1,988.41 h*ng/g
F ([3]; oral, 10 mg/kg): 51%
MAO stability (in words) [4]: intermediate stability
half-life at 1 μM [4]: > 145 min
microsomal CLint at 1 μM [4]: < 15.9 µL/min/mg
Remaining (t = 60 min) [4]: 84.5%
stability in mouse brain homogenate (in words) [5]: intermediate stability
half-life at 1 μM [5]: 123 min
% Compound Remaining (after 120 min) [5]: 47.8%
stability in rat brain homogenate (in words) [6]: high stability
half-life at 1 μM [6]: > 289 min
% Compound Remaining (after 120 min) [6]: 76.5%

CCCN(CC)CCc1c[nH]c2ccc(F)cc12 [Compound 3, N-ethyl-N-(2-(5-fluoro-1H-indol-3-yl)ethyl) propan-1-amine hydrochloride]
half-life at 1 μM [1]: 5.5 min
microsomal CLint at 1 μM [1]: 250 µL/min/mg
MAO stability (in words) [4]: highly stable
half-life at 1 μM [4]: > 145 min
microsomal CLint at 1 μM [4]: < 15.9 µL/min/mg
Remaining (t = 60 min) [4]: 97.7%
stability in mouse brain homogenate (in words) [5]: high stability
half-life at 1 μM [5]: > 289 min
% Compound Remaining (after 120 min) [5]: 76.7%
stability in rat brain homogenate (in words) [6]: high stability
half-life at 1 μM [6]: > 289 min
% Compound Remaining (after 120 min) [6]: 103.3%

CCN(C)CCc1c[nH]c2ccc(F)cc12 [Compound 4, N-ethyl-2-(5-fluoro-1H-indol-3-yl)-N-methylethan-1-amine hydrochloride]
half-life at 1 μM [1]: 47.6 min
microsomal CLint at 1 μM [1]: 29.1 µL/min/mg
AUC(0-t) ([2]; IV, 10 mg/kg): 1790 ng·h/mL
clearance ([2]; IV, 10 mg/kg): 92.8 mL/min/kg
half-life ([2]; IV, 10 mg/kg): 51.6 min
Cmax [2, 7]: 2910 ng/mL
AUC(0-t) ([2]; SC, 1 mg/kg): 57.5 ng·h/mL
Tmax ([2]; SC, 1 mg/kg): 4.8 min
half-life ([2]; SC, 1 mg/kg): 27 min
Cmax ([2]; SC, 1 mg/kg, read-out: Cmax): 83.2 ng/mL
AUC(0-t) ([2]; SC, 10 mg/kg): 1170 ng·h/mL
Tmax ([2]; SC, 10 mg/kg): 30 min
half-life ([2]; SC, 10 mg/kg): 54 min
Cmax ([2]; SC, 10 mg/kg, read-out: Cmax): 631 ng/mL
AUC(0-t) ([2]; oral, 10 mg/kg): 623 ng·h/mL
Tmax ([2]; oral, 10 mg/kg): 15 min
half-life ([2]; oral, 10 mg/kg): 80.4 min
Cmax ([2]; oral, 10 mg/kg, read-out: Cmax): 272 ng/mL
F ([2]; SC, 1 mg/kg): 32%
F ([2]; SC, 10 mg/kg): 65%
F ([2]; oral, 10 mg/kg): 35%
half-life ([3]; IV, 10 mg/kg): 56.4 min
Cmax [3, 7]: 7980 ng/g
Tmax ([3]; SC, 1 mg/kg): 15 min
half-life ([3]; SC, 1 mg/kg): 22.2 min
Cmax ([3]; SC, 1 mg/kg, read-out: Cmax): 461 ng/g
Tmax ([3]; SC, 10 mg/kg): 60 min
half-life ([3]; SC, 10 mg/kg): 49.2 min
Cmax ([3]; SC, 10 mg/kg, read-out: Cmax): 3510 ng/g
Tmax ([3]; oral, 10 mg/kg): 15 min
half-life ([3]; oral, 10 mg/kg): 79.2 min
Cmax ([3]; oral, 10 mg/kg, read-out: Cmax): 1400 ng/g
AUC0-last ([3]; IV, 10 mg/kg): 10,471.19 h*ng/g
AUC0-last ([3]; SC, 1 mg/kg): 320.97 ng·h/g
AUC0-last ([3]; SC, 10 mg/kg): 6,672.16 h*ng/g
AUC0-last ([3]; oral, 10 mg/kg): 3,835.86 h*ng/g
F ([3]; SC, 1 mg/kg): 31%
F ([3]; SC, 10 mg/kg): 64%
F ([3]; oral, 10 mg/kg): 37%
MAO stability (in words) [4]: intermediate stability
half-life at 1 μM [4]: > 145 min
microsomal CLint at 1 μM [4]: < 15.9 µL/min/mg
Remaining (t = 60 min) [4]: 75.0%
stability in mouse brain homogenate (in words) [5]: intermediate stability
half-life at 1 μM [5]: 54.3 min
% Compound Remaining (after 120 min) [5]: 20.7%
stability in rat brain homogenate (in words) [6]: intermediate stability
half-life at 1 μM [6]: 183 min
% Compound Remaining (after 120 min) [6]: 62.0%

CN(C)CCc1c[nH]c2ccccc12 [DMT, N,N-dimethyltryptamine, reference compound]
half-life at 1 μM [1]: 69.1 min
microsomal CLint at 1 μM [1]: 20.1 µL/min/mg
MAO stability (in words) [4]: highly metabolized
half-life at 1 μM [4]: 17.1 min
microsomal CLint at 1 μM [4]: 135 µL/min/mg
Remaining (t = 60 min) [4]: 8.9%
stability in mouse brain homogenate (in words) [5]: highly unstable
half-life at 1 μM [5]: 6.4 min
% Compound Remaining (after 120 min) [5]: 0.0%
stability in rat brain homogenate (in words) [6]: highly unstable
half-life at 1 μM [6]: 5.1 min
% Compound Remaining (after 120 min) [6]: 0.0%
